In patent US7172879B2, “Detection of sphingosine kinase activity and sphingosine kinase agonist or antagonist activity” (Johnson & Johnson Pharmaceutical Research & Development LLP, priority 1997, dated 2007):

Experiments:
Type in all cases: cell-based, human
VCAM-1 = test: Cell-surface expression of VCAM-1 by HUVECs, flow cytometry
Description: (§1) Confluent monolayers of HUVECs were preincubated with or without HDL that was isolated as the fraction of density 1.13˜1.21 g/ml from human plasma at a concentration of 1 mg/ml of apoA-1. After 16-h preincubation, the cells were treated with TNFα (100 U/ml). Following 4-h treatment of TNFα, the cell-surface expression of VCAM-1 and E-selectin was measured by using flow cytometry.
(§2) HUVECs were treated with an increasing concentration of C2-ceramide with or without TNF α(100 U/ml), or an increasing concentration of Sph-1-P for 4 h. The cell-surface expression of VCAM-1 or E-selectin was measured by flow cytometry. Effect of sphingosine kinase inhibitor (DMS) on the expression of VCAM-1 and E-selectin. The cells were treated with a vehicle (Nil), DMS (5 μM), Sph-1-P (5 μM), C2-ceramide (10 μM) or TNFα (100 U/ml) for 4 h, then measure VCAM-1 or E-selectin expression. Effect of agents on E-selectin mRNA levels and the comparison between the effect of HDL and DMS. After the indicated treatment for 4 h, E-selectin mRNA levels were measured by Northern blotting assay. Results shown in (D) are representative of three similar experiments.

E-selectin = test: Cell-surface expression of E-selectin by HUVECs, flow cytometry
Description: as §1, §2

ERK = ERK activity in HUVECs, immunoprecipitation and MBP substrate; conditions: for stimulation of ERK activities: 30 min treatment
Description: After the cells were treated with an agent for 30 min, ERK activities were assayed with […] basic protein (MBP) as substrate after immunoprecipitation with antibodies against p42/p44^MAPK (Berra et al. 1995; Li et al., 1996; Lee et al., 1997). The kinase reaction products were separated on 10% SDS-polyacrylamide gels. Bar graph depicting ERK activities were quantified by Phosphoimager. NF-κB binding activity was measured by electrophoretic mobility shift assay after 30 min treatment as indicated.

NF-κB = NF-κB binding activity in HUVEC nuclear extracts, electrophoretic mobility shift assay; conditions: HUVECs, 30 min treatment
Description: After the cells were treated with an agent for 30 min, ERK activities were assayed with mycline basic protein (MBP) as substrate after immunoprecipitation with antibodies against p42/p44^MAPK (Berra et al. 1995; Li et al., 1996; Lee et al., 1997). The kinase reaction products were separated on 10% SDS-polyacrylamide gels. Bar graph depicting ERK activities were quantified by Phosphoimager. NF-κB binding activity was measured by electrophoretic mobility shift assay after 30 min treatment as indicated. The specific NF-κB binding complexes were identified by the super-shift gel assay with anti-p50 and anti-p65 antibodies and by competition analyses with the addition of a 50-fold molar excess of unlabelled NF-κB oligonucleotides.
To measure the NF-κB binding activity, electrophoretic mobility-shift assays were performed. Nuclear extracts were prepared from HUVECs treated for 30 min with vehicle or the indicated agents. The double-stranded oligonucleotides used as a probe in these experiements included 5′-[…]-3′ (SEQ ID NO: 1) which contains a consensus NF-κB binding site in E-selection promoter that is underlined. Gel mobility shift of a consensus NF-κB oligonucleotide was performed by incubating ^32P-labelled NF-κB probe with […] of nuclear proteins. The Sph-1-P induced formation of NF-κB specific complexes were similar us that induced by TNFα. […]

sphingosine kinase = test: Sphingosine kinase activity in cytosolic fractions of treated HUVECs
Description: (§3) HUVECs were labelled with [^3H]sphingomyelin was measured at the desired time point of TNFα treatment. The unlabelled cells were treated with HDL and/or TNFα as indicated, cells were lysed to measure ceramide levels and sphingosine kinase activity, respectively. The cells were permeabilized to measure the production of Sph-1-P in vivo.
(§4) To measure sphingomyelin, the HUVECs were labeled with [^3H]serine (5 μCi/ml) for 48 h and preincubated with or without HDL for another 6 h. The cells were then washed three times and incubated for additional 2 h in the presence or absence of HDL. […] Sphingomyelin spots were visualized by fluorography, quantitated by scintillation spectrometry, and normalized by radioactivity recovered in total cellular lipids. […] To measure ceramide levels, cellular ceramide was extracted and quantified with the diacylglycerol kinase reaction (Kolesnick, 1991; Hannun & Bell, 1993). Sphingosine kinase activity was measured in vitro as previously described with some modification (Mattie et al., 1994; Ghosh et al., 1994; Choi et al., 1996). […] Sphingosine kinase activity was measured by incubating the supernatant with […] sphingosine-BSA complex and [γ^32P]ATP (1 mM, 5 μCi/ml) for 15 min at 37° C. […] Radioactivity of the spot corresponding to Sph-1-P was quantified using Phosphoimager system. […]

Sph-1-P formation = Sph-1-P formation in permeabilized HUVECs; conditions: endothelial cells; same concentration of DMS (5 μM)
Description: as §3, §4

E-selectin mRNA = E-selectin mRNA levels in HUVECs, Northern blotting; conditions: 4 h treatment
Description: as §2
Total RNA was prepared from HUVECs that was treated with the indicated agents for 4 h. Equal aliquots of total RNA (12 μg) were electrophoresed in a 1% formaldehyde gel and transferred to nylon membrane. The blots were hybridized with α^=P-labeled E-selection cDNA probe. The mRNA levels of E-selectin were quantified by Phosphoimager and normalised to radiolabeled GAPDH probe.

ceramide = test: Cellular ceramide levels in HUVECs, diacylglycerol kinase reaction; conditions: peak at 30 min after TNFα treatment
Description: as §3, §4

sphingomyelin = test: Sphingomyelin hydrolysis in labelled HUVECs; conditions: within 30 min of TNFα stimulation
Description: as §3, §4

[1] = HUVECs, TNFα 100 U/ml, 4 h, flow cytometry
[2] = at 51 μM, compared with 100 U/ml TNF-α

Compound: CCCCCCCCCCCCC/C=C/[C@@H](O)[C@H](CO)NC(C)=O [C2-ceramide]
- inhibition of TNFα-induced expression of VCAM-1 (VCAM-1; [1]): > 60%
- inhibition of TNFα-induced expression of E-selectin (E-selectin; [1]): > 60%
- stimulation of ERK activities (ERK): did not

Compound: N,N-dimethylsphingosine [DMS]
- inhibition of Sph-1-P induced activation of NF-κB (NF-κB): did not inhibit
- effect on Sph-1-P induced adhesion protein expression (VCAM-1) (VCAM-1; HUVECs, Sph-1-P 5 μM, 4 h): did not prevent
- inhibition of sphingosine kinase activity induced either by TNF-α or PMA (sphingosine kinase; endothelial cells, same concentration of DMS (5 μM)): > 90%
- inhibition of Sph-1-P formation induced either by TNF-α or PMA (Sph-1-P formation): > 90%
- effect on Sph-1-P induced adhesion protein expression (E-selectin) (E-selectin; HUVECs, Sph-1-P 5 μM, 4 h): did not prevent
- inhibition of TNFα-activated ERK (ERK; 30 min, p<0.02): 50%

Compound: CCCCCCCCCCCCC/C=C/[C@@H](O)[C@@H](N)COP(=O)(O)O [Sph-1-P, sphingosine-1-phosphate]
- induction of nuclear NF-κB accumulation (NF-κB): significant nuclear NF-κB accumulation
- induction of E-selectin mRNA (E-selectin mRNA): induction of E-selectin mRNA
- induction of VCAM-1, level reached (VCAM-1; [2]): approximately equivalent to 100 U/ml TNF-α
- induction of E-selectin, level reached (E-selectin; [2]): approximately equivalent to 100 U/ml TNF-α
- stimulation of ERK activities (ERK): approximately equipotent

Compound: TNFα
- increase of cellular ceramide levels (ceramide): approximately 2 fold
- cytosolic sphingosine kinase activity, maximum, % of basal (sphingosine kinase; HUVECs, within 5 min, p<0.01): 165±13%
- stimulation of ERK activities (ERK): approximately equipotent
- cellular sphingomyelin content, % of control (sphingomyelin): 40%
